Data from patent US11896594B2, “Palatable antiparasitic formulations” (Zoetis Services LLC, priority 2018, dated 2024).
Where “and” joins values, the source holds several entries; their conditions need not be identical. Equal values may be shown once.

Test system: D. immitis
Assay: Prevention of heartworm disease in dogs
Type: in vivo
Details: in vivo, po

SMILES: CO/N=C1\C[C@]2(C[C@@H]3C[C@@H](C/C=C(\C)C[C@@H](C)/C=C/C=C4\CO[C@@H]5[C@H](O)C(C)=C[C@@H](C(=O)O3)[C@]45O)O2)O[C@H](/C(C)=C/C(C)C)[C@H]1C [moxidectin]
- rate of efficacy against ML-resistant D. immitis isolate: 98.8% and 99.5%
